From patent publication US7632811B2, “Analogs of parathyroid hormone” (Societe de Conseils de Recherches et D'Applications …, priority 1995, dated 2009)
Non-standard residues stand in square brackets, D forms with d. Residues, ends and D or L forms follow the SMILES beside them. Cha = N[C@@H](CC1CCCCC1)C(=O)O; Nle = CCCC[C@H](N)C(=O)O; Dap = NC[C@H](N)C(=O)O

Molecular target: T1, PTH receptor present on SaOS-2 (human osteosarcoma cells) (Homo sapiens, UniProt Q03431)
T1 construct: host or cells: SaOS-2 human osteosarcoma cells (intact, confluent monolayers)
T1 sequence (Q03431 27-593): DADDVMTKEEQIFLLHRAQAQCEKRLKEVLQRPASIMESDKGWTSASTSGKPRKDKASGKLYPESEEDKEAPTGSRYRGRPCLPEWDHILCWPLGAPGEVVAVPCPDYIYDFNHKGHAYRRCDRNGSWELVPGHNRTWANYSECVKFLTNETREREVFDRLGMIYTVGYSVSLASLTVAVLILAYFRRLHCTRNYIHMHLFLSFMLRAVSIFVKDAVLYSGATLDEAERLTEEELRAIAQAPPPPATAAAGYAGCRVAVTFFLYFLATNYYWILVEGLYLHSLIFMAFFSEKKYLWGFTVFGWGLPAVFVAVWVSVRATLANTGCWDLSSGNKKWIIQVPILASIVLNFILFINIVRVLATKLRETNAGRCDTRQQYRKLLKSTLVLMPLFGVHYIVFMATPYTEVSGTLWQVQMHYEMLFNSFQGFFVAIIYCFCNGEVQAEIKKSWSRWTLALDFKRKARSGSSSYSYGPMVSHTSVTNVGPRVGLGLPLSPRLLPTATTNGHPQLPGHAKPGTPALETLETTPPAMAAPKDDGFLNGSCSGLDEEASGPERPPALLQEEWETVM
Assay: Binding to PTH receptor on SaOS-2 cells (competition with mono-125I-[Nle8,18,Tyr34(3-125I)]bPTH(1-34)NH2)
Details: Table I, 2 hrs at room temperature, read-out: Kd (half maximal inhibition of binding of mono-125I-[Nle8,18, Tyr34(3-125I)]bPTH(1-34)NH2)
In short: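 Confluent SaOS-2 cells in 5% FBS RPMI were incubated 2 h at room temperature with 10×10^4 cpm mono-125I-[Nle8,18,Tyr34(3-125I)]bPTH(1-34)NH2 plus competing peptide at 10^−11 to 10^−4 M. After washing, cell-bound radioactivity was counted; Kd taken as half-maximal inhibition of tracer binding.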

Row | SMILES | Kd [µM]
1 | CC[C@H](C)[C@H](NC(=O)[C@H](CCC(=O)O)NC(=O)[C@H](CO)NC(=O)[C@@H](NC(=O)[C@@H](N)CO)C(C)C)C(=O)N[C@@H](CCC(N)=O)C(=O)N[C@@H](CC(C)C)C(=O)N[C@@H](CCSC)C(=O)N[C@@H](Cc1c[nH]cn1)C(=O)N[C@@H](CC(N)=O)C(=O)N[C@@H](CC(C)C)C(=O)NCC(=O)N[C@@H](CCCCN)C(=O)N[C@@H](Cc1c[nH]cn1)C(=O)N[C@@H](CC(C)C)C(=O)N[C@@H](CC(N)=O)C(=O)N[C@@H](CO)C(=O)N[C@@H](CCSC)C(=O)N[C@@H](CCC(=O)O)C(=O)N[C@@H](CCCNC(=N)N)C(=O)N[C@H](C(=O)N[C@@H](CCC(=O)O)C(=O)N[C@@H](Cc1c[nH]c2ccccc12)C(=O)N[C@@H](CC1CCCCC1)C(=O)N[C@@H](CCCNC(=N)N)C(=O)N[C@@H](CCCCN)C(=O)N[C@@H](CCCCN)C(=O)N[C@@H](CC1CCCCC1)C(=O)N[C@@H](CCC(N)=O)C(=O)N[C@@H](CCCCN)C(=O)N[C@@H](CC1CCCCC1)C(=O)N[C@@H](Cc1c[nH]cn1)C(=O)N[C@@H](CC(N)=O)C(=O)N[C@@H](Cc1ccccc1)C(N)=O)C(C)C [[Cha^24,28,31, Lys^30]hPTH(1-34)NH2] (H-SVSEIQLMHNLGKHLNSMERVEW[Cha]RKK[Cha]QK[Cha]HNF-NH2) | 0.5
2 | CC[C@H](C)[C@H](NC(=O)[C@H](CCC(=O)O)NC(=O)[C@H](CO)NC(=O)[C@@H](NC(=O)[C@@H](N)CO)C(C)C)C(=O)N[C@@H](CCC(N)=O)C(=O)N[C@@H](CC(C)C)C(=O)N[C@@H](CCSC)C(=O)N[C@@H](Cc1c[nH]cn1)C(=O)N[C@@H](CC(N)=O)C(=O)N[C@@H](CC(C)C)C(=O)NCC(=O)N[C@@H](CCCCN)C(=O)N[C@@H](Cc1c[nH]cn1)C(=O)N[C@@H](CC(C)C)C(=O)N[C@@H](CC(N)=O)C(=O)N[C@@H](CO)C(=O)N[C@@H](CCSC)C(=O)N[C@@H](CCC(=O)O)C(=O)N[C@@H](CCCNC(=N)N)C(=O)N[C@H](C(=O)N[C@@H](CCC(=O)O)C(=O)N[C@@H](Cc1c[nH]c2ccccc12)C(=O)N[C@@H](CC1CCCCC1)C(=O)N[C@@H](CCCNC(=N)N)C(=O)N[C@@H](CCCCN)C(=O)N[C@@H](CCCCN)C(=O)N[C@@H](CC1CCCCC1)C(=O)N[C@@H](CCC(N)=O)C(=O)N[C@@H](CC(=O)O)C(=O)N[C@@H](CC1CCCCC1)C(=O)N[C@@H](Cc1c[nH]cn1)C(=O)N[C@@H](CC(N)=O)C(=O)N[C@@H](Cc1ccccc1)C(N)=O)C(C)C [[Cha^24,28,31]hPTH(1-34)NH2] (H-SVSEIQLMHNLGKHLNSMERVEW[Cha]RKK[Cha]QD[Cha]HNF-NH2) | 1
3 | CC[C@H](C)[C@H](NC(=O)[C@H](CCC(=O)O)NC(=O)[C@H](CO)NC(=O)[C@@H](NC(=O)[C@@H](N)CO)C(C)C)C(=O)N[C@@H](CCC(N)=O)C(=O)N[C@@H](CC(C)C)C(=O)N[C@@H](CCSC)C(=O)N[C@@H](Cc1c[nH]cn1)C(=O)N[C@@H](CC(N)=O)C(=O)N[C@@H](CC(C)C)C(=O)NCC(=O)N[C@@H](CCCCN)C(=O)N[C@@H](Cc1c[nH]cn1)C(=O)N[C@@H](CC(C)C)C(=O)N[C@@H](CC(N)=O)C(=O)N[C@@H](CO)C(=O)N[C@@H](CCSC)C(=O)N[C@@H](CCC(=O)O)C(=O)N[C@@H](CCCNC(=N)N)C(=O)N[C@H](C(=O)N[C@@H](CCC(=O)O)C(=O)N[C@@H](Cc1c[nH]c2ccccc12)C(=O)N[C@@H](CC1CCCCC1)C(=O)N[C@@H](CCCNC(=N)N)C(=O)N[C@@H](CCCCN)C(=O)N[C@@H](CCCCN)C(=O)N[C@@H](CC(C)C)C(=O)N[C@@H](CCC(N)=O)C(=O)N[C@@H](CC(=O)O)C(=O)N[C@H](C(=O)N[C@@H](Cc1c[nH]cn1)C(=O)N[C@@H](CC(N)=O)C(=O)N[C@@H](Cc1ccccc1)C(N)=O)C(C)C)C(C)C [[Cha^24]hPTH(1-34)NH2] (H-SVSEIQLMHNLGKHLNSMERVEW[Cha]RKKLQDVHNF-NH2) | 0.1
4 | CC[C@H](C)[C@H](NC(=O)[C@H](CCC(=O)O)NC(=O)[C@H](CO)NC(=O)[C@@H](NC(=O)[C@@H](N)CO)C(C)C)C(=O)N[C@@H](CCC(N)=O)C(=O)N[C@@H](CC(C)C)C(=O)N[C@@H](CCSC)C(=O)N[C@@H](Cc1c[nH]cn1)C(=O)N[C@@H](CC(N)=O)C(=O)N[C@@H](CC(C)C)C(=O)NCC(=O)N[C@@H](CCCCN)C(=O)N[C@@H](Cc1c[nH]cn1)C(=O)N[C@@H](CC(C)C)C(=O)N[C@@H](CC(N)=O)C(=O)N[C@@H](CO)C(=O)N[C@@H](CCSC)C(=O)N[C@@H](CCC(=O)O)C(=O)N[C@@H](CCCNC(=N)N)C(=O)N[C@H](C(=O)N[C@@H](CCC(=O)O)C(=O)N[C@@H](Cc1c[nH]c2ccccc12)C(=O)N[C@@H](CC(C)C)C(=O)N[C@@H](CCCNC(=N)N)C(=O)N[C@@H](CCCCN)C(=O)N[C@@H](CCCCN)C(=O)N[C@@H](CC1CCCCC1)C(=O)N[C@@H](CCC(N)=O)C(=O)N[C@@H](CC(=O)O)C(=O)N[C@@H](CC1CCCCC1)C(=O)N[C@@H](Cc1c[nH]cn1)C(=O)N[C@@H](CC(N)=O)C(=O)N[C@@H](Cc1ccccc1)C(N)=O)C(C)C [[Cha^28,31]hPTH(1-34)NH2] (H-SVSEIQLMHNLGKHLNSMERVEWLRKK[Cha]QD[Cha]HNF-NH2) | 0.06
5 | CC[C@H](C)[C@H](NC(=O)[C@H](CCC(=O)O)NC(=O)[C@H](CO)NC(=O)[C@@H](NC(=O)[C@@H](N)CO)C(C)C)C(=O)N[C@@H](CCC(N)=O)C(=O)N[C@@H](CC(C)C)C(=O)N[C@@H](CCSC)C(=O)N[C@@H](Cc1c[nH]cn1)C(=O)N[C@@H](CC(N)=O)C(=O)N[C@@H](CC(C)C)C(=O)NCC(=O)N[C@@H](CCCCN)C(=O)N[C@@H](Cc1c[nH]cn1)C(=O)N[C@@H](CC(C)C)C(=O)N[C@@H](CC(N)=O)C(=O)N[C@@H](CO)C(=O)N[C@@H](CCSC)C(=O)N[C@@H](CCC(=O)O)C(=O)N[C@@H](CCCNC(=N)N)C(=O)N[C@H](C(=O)N[C@@H](CCC(=O)O)C(=O)N[C@@H](Cc1c[nH]c2ccccc12)C(=O)N[C@@H](CC(C)C)C(=O)N[C@@H](CCCNC(=N)N)C(=O)N[C@@H](CCCCN)C(=O)N[C@@H](CCCCN)C(=O)N[C@@H](CC1CCCCC1)C(=O)N[C@@H](CCC(N)=O)C(=O)N[C@@H](CC(=O)O)C(=O)N[C@H](C(=O)N[C@@H](Cc1c[nH]cn1)C(=O)N[C@@H](CC(N)=O)C(=O)N[C@@H](Cc1ccccc1)C(N)=O)C(C)C)C(C)C [[Cha^28]hPTH(1-34)NH2] (H-SVSEIQLMHNLGKHLNSMERVEWLRKK[Cha]QDVHNF-NH2) | 0.05
6 | CC[C@H](C)[C@H](NC(=O)[C@H](CCC(=O)O)NC(=O)[C@H](CO)NC(=O)[C@@H](NC(=O)[C@@H](N)CO)C(C)C)C(=O)N[C@@H](CCC(N)=O)C(=O)N[C@@H](CC(C)C)C(=O)N[C@@H](CCSC)C(=O)N[C@@H](Cc1c[nH]cn1)C(=O)N[C@@H](CC(N)=O)C(=O)N[C@@H](CC(C)C)C(=O)NCC(=O)N[C@@H](CCCCN)C(=O)N[C@@H](Cc1c[nH]cn1)C(=O)N[C@@H](CC(C)C)C(=O)N[C@@H](CC(N)=O)C(=O)N[C@@H](CO)C(=O)N[C@@H](CCSC)C(=O)N[C@@H](CCC(=O)O)C(=O)N[C@@H](CCCNC(=N)N)C(=O)N[C@H](C(=O)N[C@@H](CCC(=O)O)C(=O)N[C@@H](Cc1c[nH]c2ccccc12)C(=O)N[C@@H](CC(C)C)C(=O)N[C@@H](CCCNC(=N)N)C(=O)N[C@@H](CCCCN)C(=O)N[C@@H](CCCCN)C(=O)N[C@@H](CC(C)C)C(=O)N[C@@H](CCC(N)=O)C(=O)N[C@@H](CC(=O)O)C(=O)N[C@@H](CC1CCCCC1)C(=O)N[C@@H](Cc1c[nH]cn1)C(=O)N[C@@H](CC(N)=O)C(=O)N[C@@H](Cc1ccccc1)C(N)=O)C(C)C [[Cha^31]hPTH(1-34)NH2] (H-SVSEIQLMHNLGKHLNSMERVEWLRKKLQD[Cha]HNF-NH2) | 0.03
7 | CCCC[C@H](NC(=O)[C@H](CO)NC(=O)[C@H](CC(N)=O)NC(=O)[C@H](CC(C)C)NC(=O)[C@H](Cc1c[nH]cn1)NC(=O)[C@H](CCCCN)NC(=O)CNC(=O)[C@H](CC(C)C)NC(=O)[C@H](CC(N)=O)NC(=O)[C@H](Cc1c[nH]cn1)NC(=O)[C@H](CCCC)NC(=O)[C@H](CC(C)C)NC(=O)[C@H](CCC(N)=O)NC(=O)[C@@H](NC(=O)[C@H](CCC(=O)O)NC(=O)[C@H](CO)NC(=O)[C@@H](NC(=O)[C@@H](N)CN)C(C)C)[C@@H](C)CC)C(=O)N[C@@H](CCC(=O)O)C(=O)N[C@@H](CCCNC(=N)N)C(=O)N[C@H](C(=O)N[C@@H](CCC(=O)O)C(=O)N[C@@H](Cc1c[nH]c2ccccc12)C(=O)N[C@@H](CC(C)C)C(=O)N[C@@H](CCCNC(=N)N)C(=O)N[C@@H](CCCCN)C(=O)N[C@@H](CCCCN)C(=O)N[C@@H](CC(C)C)C(=O)N[C@@H](CCC(N)=O)C(=O)N[C@@H](CC(=O)O)C(=O)N[C@H](C(=O)N[C@@H](Cc1c[nH]cn1)C(=O)N[C@@H](CC(N)=O)C(=O)N[C@@H](Cc1ccc(O)cc1)C(N)=O)C(C)C)C(C)C [[Dap,Nle^8,18, Tyr^34]hPTH(1-34)NH2] (H-[Dap]VSEIQL[Nle]HNLGKHLNS[Nle]ERVEWLRKKLQDVHNY-NH2) | 0.15
